Assay [1] concerns MCF7. Briefly: Antiproliferative activity against human MCF7 cells after 72 hrs by MTS assay. Format: functional, cell-based. As to conditions: MCF7, 72 h. (In general: Tetrazolium dyes change colour on reduction, which living cells bring about.)
Assay [2] concerns SK-BR-3. Briefly: Antiproliferative activity against human SKBR3 cells after 72 hrs by MTS assay. The format is functional, cell-based. As to conditions: SK-BR-3, 72 h.
The test system of assay [3] is SK-BR-3. Briefly: Ratio of IC50 for compound to IC50 for novobiocin for human SKBR3 cells. Format: functional.
The target in assay [4] is Heat shock protein HSP 90-beta (Homo sapiens) (UniProt P08238). Nature of the assay: Inhibition of HSP90 in human MCF7 cells assessed as Her2 degradation at 0.5 to 7.5 uM after 24 hrs by Western blot analysis. Format: cell-based. (In general: A western blot detects proteins with antibodies after separation by electrophoresis.)
Assay [5] shares this target. Briefly: Inhibition of HSP90 in human MCF7 cells assessed as Akt degradation at 0.5 to 7.5 uM after 24 hrs by Western blot analysis. The format is cell-based.
For assay [6] the target is unchanged. Briefly: Inhibition of HSP90 in human MCF7 cells assessed as Raf degradation at 0.5 to 7.5 uM after 24 hrs by Western blot analysis. The format is cell-based.
Assay [7] has the same target. Nature of the assay: Inhibition of HSP90 in human MCF7 cells assessed as Raf degradation after 24 hrs by Western blot analysis. Format: cell-based.
Assay [8] shares this target. Briefly: Inhibition of HSP90 in human MCF7 cells assessed as Akt degradation after 24 hrs by Western blot analysis. Format: cell-based.
The target is the same in assay [9]. Nature of the assay: Inhibition of HSP90 in human MCF7 cells assessed as Her2 degradation at after 24 hrs by Western blot analysis. The format is cell-based.
Assay [10] has the same target. Briefly: Inhibition of HSP90 in human MCF7 cells assessed as Akt degradation at 0.5 to 100 uM after 24 hrs by Western blot analysis. The format is cell-based.
Assay [11] has the same target. Nature of the assay: Inhibition of HSP90 in human MCF7 cells assessed as Her2 degradation at 0.5 to 100 uM after 24 hrs by Western blot analysis. Format: cell-based.
Assay [12] deals with SK-BR-3. Nature of the assay: Ratio of IC50 for compound to IC50 for DHN2 for human SKBR3 cells. Format: functional.
In assay [13] the target is Heat shock protein HSP 90-beta (Homo sapiens) (UniProt P08238). Nature of the assay: Inhibition of HSP90 in human MCF7 cells assessed as Raf degradation at 0.5 to 100 uM after 24 hrs by Western blot analysis. The format is cell-based.
For assay [14], the system named is MCF7. Briefly: Ratio of IC50 for compound to IC50 for novobiocin for human MCF7 cells. The format is functional.

Calls of active or inactive are those of the source. No cut-off for these calls is given here.

The term IC50 denotes the concentration needed to halve the response being measured. A lower IC50 goes with inhibition by little substance.

Heat shock protein HSP 90-beta (Homo sapiens), sequence (P08238 whole entry): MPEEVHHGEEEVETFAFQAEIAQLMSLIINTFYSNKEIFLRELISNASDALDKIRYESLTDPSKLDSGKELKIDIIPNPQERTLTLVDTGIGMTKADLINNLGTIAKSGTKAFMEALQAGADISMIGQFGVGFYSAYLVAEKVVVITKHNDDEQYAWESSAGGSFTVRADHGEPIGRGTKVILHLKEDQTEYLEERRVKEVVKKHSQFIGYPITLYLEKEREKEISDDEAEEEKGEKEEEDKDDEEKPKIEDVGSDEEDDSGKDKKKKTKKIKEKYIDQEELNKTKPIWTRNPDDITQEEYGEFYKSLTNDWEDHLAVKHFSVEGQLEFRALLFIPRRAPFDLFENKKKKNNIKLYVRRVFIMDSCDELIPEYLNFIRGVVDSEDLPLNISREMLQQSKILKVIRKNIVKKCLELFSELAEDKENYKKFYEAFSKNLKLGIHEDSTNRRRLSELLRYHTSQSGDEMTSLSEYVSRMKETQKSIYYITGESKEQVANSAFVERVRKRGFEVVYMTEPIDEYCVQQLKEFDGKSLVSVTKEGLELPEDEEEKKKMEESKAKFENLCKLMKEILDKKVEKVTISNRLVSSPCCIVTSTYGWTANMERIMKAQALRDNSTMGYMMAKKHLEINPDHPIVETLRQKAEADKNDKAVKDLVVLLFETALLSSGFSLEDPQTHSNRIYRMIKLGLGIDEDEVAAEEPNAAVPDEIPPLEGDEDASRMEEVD

As for `CC(C)=CCc1cc(C(=O)Nc2cc3ccc(OC4CCN(C)CC4)c(C)c3oc2=O)ccc1O`, half-maximal inhibition in the assay with MCF7 [1] (IC50) was put at 1090 nM.
For the compound `CC(=O)Oc1ccc(C(=O)Nc2cc3ccc(OCCN(C)C)c(C)c3oc2=O)cc1CC=C(C)C`, the values for the IC50 with MCF7 [1] and in the assay with SK-BR-3 [2] were 4760 nM and 1320 nM, respectively.
Take `CC(C)=CCc1cc(C(=O)Nc2cc3ccc(O[C@H]4OCCC[C@H]4O)c(C)c3oc2=O)ccc1O`: the IC50 was determined as 6450 nM in the assay on MCF7 [1] and 7870 nM in the assay with SK-BR-3 [2]. In addition, the “Ratio IC50” value in the assay with SK-BR-3 [3] was determined as 1500.
Consider `CC(C)=CCc1cc(C(=O)Nc2cc3ccc(OCCCN(C)C)c(C)c3oc2=O)ccc1O`, for which the IC50 with MCF7 [1] turned out to be 1350 nM; in the assay with SK-BR-3 [2], 440 nM.
With `CNCCOc1ccc2cc(NC(=O)c3ccc(OC(C)=O)c(CC=C(C)C)c3)c(=O)oc2c1C`, the values for the IC50 in the assay with MCF7 [1] and in the assay with SK-BR-3 [2] were 2080 nM and 910 nM, respectively.
In the case of `CC(C)=CCc1cc(C(=O)Nc2cc3ccc(O[C@@H]4C[C@H](O)CO4)c(C)c3oc2=O)ccc1O`, the IC50 was > 100000 nM with MCF7 [1] and 22200 nM in the assay on SK-BR-3 [2]. In addition, the “Ratio IC50” value in the assay on SK-BR-3 [3] turned out to be 1500.
`CC(=O)Oc1ccc(C(=O)Nc2cc3ccc(OC4CCCN(C)C4)c(C)c3oc2=O)cc1CC=C(C)C` (stereo unspecified): the figures for the IC50 in the assay with MCF7 [1] and with SK-BR-3 [2] were 1570 nM and 1420 nM, respectively.
The matching figures for `CC(=O)Oc1ccc(C(=O)Nc2cc3ccc(OC4CCNCC4)c(C)c3oc2=O)cc1CC=C(C)C`: 1530 nM and 560 nM.
For `CC(C)=CCc1cc(C(=O)Nc2cc3ccc(OC4CCNCC4)c(C)c3oc2=O)ccc1O`, the IC50 is 850 nM in the assay on MCF7 [1] and 470 nM in the assay on SK-BR-3 [2]. Further, the inhibition result in [4], in assay [5] and in assay [6] was “Active” in each case. Besides, the inhibition result in [7], in [8] and in [9] was “Dose-dependent effect” in each case.
As to `CC(C)=CCc1cc(C(=O)Nc2cc3ccc(O[C@H]4C[C@H](O)CCO4)c(C)c3oc2=O)ccc1O`, the half-maximal inhibitory concentration (IC50) came out at 1560 nM in the assay with MCF7 [1] and 3110 nM with SK-BR-3 [2]. Besides, the inhibition result in assay [10], in [11] and in assay [13] was “Active” each time. Besides, the results for the Ratio IC50 in the assay on SK-BR-3 [3], in the assay with SK-BR-3 [12] and in the assay on MCF7 [14] were 200, 3 and 200, respectively. In addition, the inhibition entry in assay [7], in assay [8] and in [9] was “Dose-dependent effect” throughout.
Turning to `CC(=O)Oc1ccc(C(=O)Nc2cc3ccc(OC4CCN(C)CC4)c(C)c3oc2=O)cc1CC=C(C)C`, the IC50 with MCF7 [1] amounted to 1180 nM; in the assay with SK-BR-3 [2], 580 nM.
With `CC(C)=CCc1cc(C(=O)Nc2cc3ccc(O[C@H]4C[C@H](O)CO4)c(C)c3oc2=O)ccc1O`, the IC50 with MCF7 [1] came out at 22500 nM; with SK-BR-3 [2] it was 21500 nM. Also, the “Ratio IC50” value in the assay on SK-BR-3 [3] is reported as 1500.
For `CNCCOc1ccc2cc(NC(=O)c3ccc(O)c(CC=C(C)C)c3)c(=O)oc2c1C`, the IC50 in the assay with MCF7 [1] turned out to be 1330 nM; with SK-BR-3 [2], 750 nM.
Consider `CC(C)=CCc1cc(C(=O)Nc2cc3ccc(O[C@@H]4C[C@H](O)CCO4)c(C)c3oc2=O)ccc1O`, for which the IC50 came out at 1340 nM with MCF7 [1] and 5070 nM in the assay with SK-BR-3 [2]. In addition, the “Ratio IC50” value in the assay with SK-BR-3 [3] was 1500.
As for `CC(=O)Oc1ccc(C(=O)Nc2cc3ccc(OCCCN(C)C)c(C)c3oc2=O)cc1CC=C(C)C`, the IC50 with MCF7 [1] was 1180 nM; with SK-BR-3 [2] it was 460 nM.
Consider `CC(C)=CCc1cc(C(=O)Nc2cc3ccc(O[C@@H]4OCC[C@@H](O)[C@H]4O)c(C)c3oc2=O)ccc1O`, for which the IC50 in the assay with MCF7 [1] came to 13300 nM; in the assay with SK-BR-3 [2], 6960 nM. Besides, in the assay on SK-BR-3 [3], the “Ratio IC50” value was 1500.
Consider `CC(C)=CCc1cc(C(=O)Nc2cc3ccc(OC4CCCN(C)C4)c(C)c3oc2=O)ccc1O` (stereo unspecified), for which the concentration for half-maximal inhibition (IC50) in the assay on MCF7 [1] is 10100 nM; in the assay with SK-BR-3 [2] it was 4690 nM.
Turning to `CC(=O)Oc1ccc(C(=O)Nc2cc3ccc(OC4CCCNC4)c(C)c3oc2=O)cc1CC=C(C)C` (stereo unspecified), the IC50 in the assay with MCF7 [1] was found to be 1540 nM; with SK-BR-3 [2], 1230 nM.
For `CC(C)=CCc1cc(C(=O)Nc2cc3ccc(O[C@@H]4OC[C@@H](O)[C@H]4O)c(C)c3oc2=O)ccc1O`, the IC50 was 14300 nM with MCF7 [1] and 14400 nM in the assay with SK-BR-3 [2]. In addition, the “Ratio IC50” value with SK-BR-3 [3] turned out to be 1500.
With `CC(C)=CCc1cc(C(=O)Nc2cc3ccc(O[C@H]4OCC[C@@H](O)[C@H]4O)c(C)c3oc2=O)ccc1O`, the IC50 with MCF7 [1] was found to be 10000 nM; in the assay on SK-BR-3 [2] it was 10700 nM. In the assay on SK-BR-3 [3], the “Ratio IC50” value was found to be 1500.
On to `CC(C)=CCc1cc(C(=O)Nc2cc3ccc(OCCN(C)C)c(C)c3oc2=O)ccc1O`, for which the half-inhibitory concentration (IC50) in the assay with MCF7 [1] worked out at 13500 nM; in the assay with SK-BR-3 [2] it was 9450 nM.
`CO[C@@H]1[C@@H](O)[C@@H](O)[C@H](Oc2ccc3cc(NC(=O)c4ccc(O)c(CC=C(C)C)c4)c(=O)oc3c2C)OC1(C)C`: the IC50 in the assay with MCF7 [1] worked out at 11300 nM; with SK-BR-3 [2], 10900 nM. Further, the “Ratio IC50” value in the assay with SK-BR-3 [3] was 1500.
As to `CC(C)=CCc1cc(C(=O)Nc2cc3ccc(OC4CCCNC4)c(C)c3oc2=O)ccc1O` (stereo unspecified), the IC50 with MCF7 [1] was 1680 nM; in the assay with SK-BR-3 [2] it was 790 nM.
`CC(C)=CCc1cc(C(=O)Nc2cc3ccc(O[C@@H]4OCCC[C@H]4O)c(C)c3oc2=O)ccc1O`: the IC50 was 10200 nM in the assay on MCF7 [1] and 30000 nM in the assay on SK-BR-3 [2]. Further, the “Ratio IC50” value with SK-BR-3 [3] was determined as 1500.

The values are drawn from ChEMBL document CHEMBL1773008 (ACS Med Chem Lett, 2010).
